Data from article PMC8912030, “Secondary Metabolites with Anti-Inflammatory from the Roots of Cimicifuga taiwanensis” (Molecules, 2022).
Like-named read-outs stand apart in the source and are kept apart here.

Assays:
[1] = system: LPS-activated NO production in RAW 264.7 macrophages; experiment: Inhibition of LPS-induced NO production (Griess reagent assay, nitrite); format: cell-based, mouse; details: for NO inhibitory activity (in words): LPS-induced NO production in RAW 264.7; for IC50: Mus musculus, read-out: IC50 NO; for fold NO inhibitory activity compared with quercetin: ratio to quercetin IC50 34.58 μM
Experimental: The anti-inflammatory activities of the 5 isolates (2–6) in sufficient amounts were evaluated by examining their inhibitory effects on lipopolysaccharide (LPS)-induced inducible nitric oxide synthase (iNOS)-dependent NO 6 production in the murine macrophage cell line RAW 264.7 (Table 4). From the results of our anti-inflammatory tests, the following conclusions could be drawn.
(§1) The mouse macrophage cell line (RAW 264.7) was obtained from the Bioresource Collection and Research Center (BCRC 60001) and cultured at 37 °C in Dulbecco’s Modified Eagle’s Medium (DMEM) supplemented with 10% fetal bovine serum (Gibco), 4.5 g/L glucose, 4 mM glutamine, penicillin (100 units/mL), and streptomycin (100 μg/mL) in a humidified atmosphere in a 5% CO2 incubator. The cells were treated with 10, 25, and 50 μM of natural products in the presence of 1 μg/mL lipopolysaccharide (LPS, Sigma-Aldrich) for 20 h. The concentration of NO in the culture supernatants was determined to be nitrite, a major stable product of NO, by a Griess reagent assay, and cell viabilities were determined using the MTT assay as described previously.

RAW 264.7 macrophages = experiment: Cell viability (MTT assay); format: cell-based, mouse
Experimental: (§2) The cytotoxic effects were tested using an MTT experiment.
as §1

[2] = Cell viability (MTT assay); format: cell-based, mouse; details: mouse
Experimental: as §2, §1

[3] = RAW264.7, RAW 264.7, 1 μg/mL LPS, 20 h, mean ± SEM (n = 4) of 3 independent experiments

Structure (SMILES) | IC50 [1, 3] | melting point | NO inhibitory activity (in words) [1] | fold NO inhibitory activity compared with quercetin [1] | Cell Viability (% Control) (RAW 264.7 macrophages; 50 µM) | viability at 20 h, 50 µM [2] | NO inhibitory activity (in words) ([1]; listed as Cimicitaiwanin E) | IC50 ([1]; RAW264.7, 20 h) | Cell Viability (% Control) (RAW 264.7 macrophages; RAW 264.7, MTT, mean ± SEM, concentration not given in table (text: 50 μM))
CC1CC2OC3(OC2C(C)(C)O)C1C1(C)CCC24CC25C=CC(=O)C(C)(C)C5CC=C4C1(C)C3O (stereo not drawn) [Compound 5, cimicitaiwanin E] |  |  | moderate |  | 88.54 ± 1.50 % Control | 89% | showed inhibitory activities | 24.6 ± 4.97 µM | 
O=c1c(O)c(-c2ccc(O)c(O)c2)oc2cc(O)cc(O)c12 [Quercetin, quercetin, reference compound] | 34.6 ± 2.34 µM |  |  |  |  |  |  |  | 95.56 ± 1.91 % Control
CC(=O)OC(C)(C)C1OC23OC1CC(C)C2C1(C)CCC2=C(CCC4C(=CCC(OC5OCC(O)C(O)C5O)C4(C)C)C2)C1(C)C3O (stereo not drawn) [Compound 4, cimicitaiwanin D] | 10.1 ± 0.47 µM |  | showed inhibitory activities | three | 91.12 ± 4.22 % Control | 91% |  |  | 

More lines, main results first:

IC50 [1, 3] | melting point | Structure (SMILES) | NO inhibitory activity (in words) [1] | fold NO inhibitory activity compared with quercetin [1] | Cell Viability (% Control) (RAW 264.7 macrophages; 50 µM) | viability at 20 h, 50 µM [2] | NO inhibitory activity (in words) ([1]; listed as Cimicitaiwanin E) | IC50 ([1]; RAW264.7, 20 h) | Cell Viability (% Control) (RAW 264.7 macrophages; RAW 264.7, MTT, mean ± SEM, concentration not given in table (text: 50 μM))
15.4 ± 0.85 µM |  | CC(C=CC1C(C)CC(O)CC1(C)C)=CC(=O)O [Compound 6, rel-(2E,4E)-5-((3S,5R,6R,)-4-hydroxy-2,2,6-trimethylcyclohexyl)-3-methylpenta-2,4-dienoic acid] | showed inhibitory activities | two | 86.84 ± 2.95 % Control | 87% |  |  | 
6.54 ± 0.87 µM | 103 to 105 °C | CC(=O)OC(C)(C)C1OC23OC1CC(C)C2C1(C)CC(=O)C2=C(C(O)CC4C5(CCC(O5)C4(C)C)C2)C1(C)C3O (stereo not drawn) [Compound 3, 25-O-acetyl-7β-hydroxy-11-oxoacerinol] | showed inhibitory activities | five | 95.53 ± 3.39 % Control | 95% |  |  | 
8.37 ± 3.25 µM |  | CC(=O)OC(C)(C)C1OC23OC1CC(C)C2C1(C)C(O)CC2=C(CCC4C5(CCC(O5)C4(C)C)C2)C1(C)C3O (stereo not drawn) [Compound 2, 25-O-acetyl-12β-hydroxyacerinol] |  | about four | 69.14 ± 2.87 % Control | < 80% |  |  | 
